Source: article PMC10673995, “Discovery of a novel cardiac-specific myosin modulator using artificial intelligence-based virtual screening” (Nature Communications, 2023)
Several values for one entry are separate records, joined by “and”; a condition that tells them apart may be missing. Equal values may be shown once.

Assays:
[1] = target: T1, synthetic thick filaments formed from purified full-length bovine β-cardiac myosin (Bos taurus, UniProt Q9BE39); experiment: mant-ATP chase single nucleotide turnover, synthetic thick filaments; type: biochemical; details: for Representative Traces (mant-ATP chase, fluorescence signal over time): Figure 3b
T1 construct: diluting full-length bovine cardiac myosin stock into assay buffer; from tissue; host or cells: bovine cardiac muscle (the text says isolated/purified and describes no preparation)
From the text: We used systems of increasing complexity ranging from the isolated cardiac myosin motor domains (Fig. 3a) to synthetic thick filaments formed from purified full-length bovine cardiac myosin (Fig. 3b) and bovine cardiac myofibrils as substrates in the chase assays (Fig. 3c). In contrast to the isolated myosin motors, synthetic thick filaments contain two myosin head domains per molecule connected via their coiled-coil tail.
Synthetic thick filaments were freshly prepared by diluting full-length bovine cardiac myosin stock into assay buffer (composition in mmol L^−1: 15 PIPES pH 7, 5 MgCl2, 1 DTT) and incubation on ice for 2 h. Bovine myosin S1 and synthetic thick filament concentrations were adjusted to 0.4 μmol L^−1 with assay buffer and 40 μL aliquoted into individual wells of a black 384-well plate (Greiner). Mant-ATP (JenaBioscience) was added to each well to a final concentration of 0.4 μmol L^−1 using an automated injector unit in a ClarioStar Plate Reader (BMG LabTech) and the system was allowed to age for 1 min. The chase phase was started by adding a final concentration of 2 mmol L^−1 ATP using a second automated injector unit. Fluorescence intensity from each well was constantly measured for 15 min every 1 sec at 25 °C with the following settings: excitation at 360 nm with a 20 nm bandwidth and emission at 450 nm with a 20 nm bandwidth. For experiments with cardiac myofibrils the concentration was adjusted to 1 mg m L^−1, and the mant-ATP and ATP concentrations were increased to 20 μmol L^−1 and 20 mmol L^−1, respectively.

bovine cardiac myosin S1 = bovine cardiac myosin S1 (Bos taurus, UniProt Q9BE39); experiment: mant-ATP chase single nucleotide turnover, myosin S1; details: for Representative Traces (mant-ATP chase, normalised signal): representative trace, sheet Figure 3a;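 for all read-outs here: 0.4 µM S1 preloaded with equimolar mant-ATP, chased by 2 mM ATP, mant fluorescence (ex 360, em 450 nm) read each second over 15 min at 25 °C, biexponential fit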
From the text: Chase of mant-ATP loaded cardiac myosin S1 with ATP leads to a decrease in the mant fluorescence intensity which is best described by a bi-exponential decay function with an initial fast phase followed by a second slower phase, corresponding to the so-called disordered (DRX) and super-relaxed state (SRX) of myosin, respectively.

[2] = Synthetic Myosin Filaments, individual replicates
[3] = Beta-cardiac myosin S1, individual replicates

T1 sequence (Q9BE39 whole entry): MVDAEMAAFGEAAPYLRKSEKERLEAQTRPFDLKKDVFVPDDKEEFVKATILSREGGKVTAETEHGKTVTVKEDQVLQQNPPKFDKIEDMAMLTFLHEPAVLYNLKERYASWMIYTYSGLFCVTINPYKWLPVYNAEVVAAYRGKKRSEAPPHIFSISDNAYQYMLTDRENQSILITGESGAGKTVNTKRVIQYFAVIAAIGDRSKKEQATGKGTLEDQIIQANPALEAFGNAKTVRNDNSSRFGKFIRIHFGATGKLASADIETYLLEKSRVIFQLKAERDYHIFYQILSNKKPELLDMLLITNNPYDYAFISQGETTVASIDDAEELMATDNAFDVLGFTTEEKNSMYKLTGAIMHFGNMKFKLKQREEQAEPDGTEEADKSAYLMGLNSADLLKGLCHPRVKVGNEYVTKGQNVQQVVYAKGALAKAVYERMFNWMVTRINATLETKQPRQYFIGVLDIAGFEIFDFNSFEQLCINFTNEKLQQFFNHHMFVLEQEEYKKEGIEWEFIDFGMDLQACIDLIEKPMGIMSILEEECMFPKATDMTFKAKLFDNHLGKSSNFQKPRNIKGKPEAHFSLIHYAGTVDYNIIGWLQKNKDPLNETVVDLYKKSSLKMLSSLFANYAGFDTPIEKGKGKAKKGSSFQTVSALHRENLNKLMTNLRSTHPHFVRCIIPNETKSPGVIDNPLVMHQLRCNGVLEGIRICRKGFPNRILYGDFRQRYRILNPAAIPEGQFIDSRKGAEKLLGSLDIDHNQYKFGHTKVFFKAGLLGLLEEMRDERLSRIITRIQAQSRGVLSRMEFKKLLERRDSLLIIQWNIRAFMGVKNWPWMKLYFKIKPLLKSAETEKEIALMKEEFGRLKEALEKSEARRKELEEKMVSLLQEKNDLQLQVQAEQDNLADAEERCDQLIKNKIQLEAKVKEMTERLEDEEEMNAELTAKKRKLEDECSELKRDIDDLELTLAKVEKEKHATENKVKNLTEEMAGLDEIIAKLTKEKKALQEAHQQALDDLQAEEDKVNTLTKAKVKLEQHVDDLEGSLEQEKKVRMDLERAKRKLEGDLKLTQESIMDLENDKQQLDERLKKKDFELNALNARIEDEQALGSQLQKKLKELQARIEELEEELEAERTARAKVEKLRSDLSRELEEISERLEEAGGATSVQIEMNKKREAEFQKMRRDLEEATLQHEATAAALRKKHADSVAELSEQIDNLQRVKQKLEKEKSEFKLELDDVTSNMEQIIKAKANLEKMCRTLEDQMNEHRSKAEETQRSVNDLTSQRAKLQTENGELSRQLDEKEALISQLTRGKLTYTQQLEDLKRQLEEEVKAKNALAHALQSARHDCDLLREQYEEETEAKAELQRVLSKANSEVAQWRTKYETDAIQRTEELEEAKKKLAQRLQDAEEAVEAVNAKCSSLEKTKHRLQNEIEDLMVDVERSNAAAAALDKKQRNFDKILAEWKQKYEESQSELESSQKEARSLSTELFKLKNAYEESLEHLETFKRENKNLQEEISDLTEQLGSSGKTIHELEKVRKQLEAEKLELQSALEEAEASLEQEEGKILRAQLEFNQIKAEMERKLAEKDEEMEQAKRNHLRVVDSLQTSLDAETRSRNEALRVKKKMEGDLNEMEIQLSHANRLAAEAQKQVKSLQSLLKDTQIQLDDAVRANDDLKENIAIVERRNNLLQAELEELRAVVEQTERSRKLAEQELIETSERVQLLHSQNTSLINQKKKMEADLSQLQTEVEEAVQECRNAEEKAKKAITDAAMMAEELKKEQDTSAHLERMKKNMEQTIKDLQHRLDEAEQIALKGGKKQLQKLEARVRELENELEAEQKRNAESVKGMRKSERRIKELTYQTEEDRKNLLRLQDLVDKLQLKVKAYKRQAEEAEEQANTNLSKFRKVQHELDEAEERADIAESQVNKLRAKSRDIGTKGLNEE
T1 sequence (P85100 whole entry partner): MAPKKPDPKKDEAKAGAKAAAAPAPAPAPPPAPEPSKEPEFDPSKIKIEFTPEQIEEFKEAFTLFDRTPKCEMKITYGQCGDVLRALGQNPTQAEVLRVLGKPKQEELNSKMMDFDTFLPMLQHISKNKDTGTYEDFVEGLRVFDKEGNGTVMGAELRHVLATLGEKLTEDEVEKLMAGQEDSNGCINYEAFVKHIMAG
T1 sequence (Q3SZE5 whole entry partner): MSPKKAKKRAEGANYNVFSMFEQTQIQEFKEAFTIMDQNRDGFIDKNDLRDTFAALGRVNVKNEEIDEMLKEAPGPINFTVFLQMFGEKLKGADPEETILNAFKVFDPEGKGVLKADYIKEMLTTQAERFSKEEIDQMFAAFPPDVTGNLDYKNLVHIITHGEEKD
Sequence of bovine cardiac myosin S1 (Q9BE39 85-778 limits assumed): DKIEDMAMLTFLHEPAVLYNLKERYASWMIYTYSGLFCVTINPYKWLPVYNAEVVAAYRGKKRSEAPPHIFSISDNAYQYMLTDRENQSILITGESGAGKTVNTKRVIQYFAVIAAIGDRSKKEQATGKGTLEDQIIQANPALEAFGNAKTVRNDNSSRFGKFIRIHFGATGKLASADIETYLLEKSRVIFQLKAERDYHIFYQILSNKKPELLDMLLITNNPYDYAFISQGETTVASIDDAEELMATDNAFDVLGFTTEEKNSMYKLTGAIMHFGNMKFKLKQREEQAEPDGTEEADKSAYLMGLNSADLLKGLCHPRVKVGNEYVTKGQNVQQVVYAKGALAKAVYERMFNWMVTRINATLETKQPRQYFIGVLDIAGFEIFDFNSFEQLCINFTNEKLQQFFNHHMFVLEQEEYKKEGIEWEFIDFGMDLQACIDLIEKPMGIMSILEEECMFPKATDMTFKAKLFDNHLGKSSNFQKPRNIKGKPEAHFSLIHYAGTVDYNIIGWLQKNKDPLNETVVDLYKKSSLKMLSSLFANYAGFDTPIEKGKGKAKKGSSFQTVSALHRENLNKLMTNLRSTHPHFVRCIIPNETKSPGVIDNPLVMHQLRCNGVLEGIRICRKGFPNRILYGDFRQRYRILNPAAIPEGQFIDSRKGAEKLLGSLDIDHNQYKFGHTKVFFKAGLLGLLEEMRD
Sequence of bovine cardiac myosin S1 (P85100 whole entry partner): as the sequence (P85100 whole entry partner) above

- effect on the rate of the fast DRX phase [1]: no effect
- Representative Traces (mant-ATP chase, fluorescence signal over time) ([1]; t = 796 s): 0.1167
- Representative Traces (mant-ATP chase, fluorescence signal over time) ([1]; t = 797 s): 0.08985
- Representative Traces (mant-ATP chase, fluorescence signal over time) ([1]; t = 798 s): 0.08985
- kslow ([1]; control 0.0046 ± 0.0007): 0.0033 ± 0.0007 s⁻¹
- kfast ([1]; control […]): 0.0593 ± 0.0188 s⁻¹
- effect on the rate of the fast DRX phase (bovine cardiac myosin S1): no effect
- kslow (bovine cardiac myosin S1; 2 μmol L^-1 Mavacamten or 20 μmol L^-1 F10, control 0.0058 ± 0.0010): 0.0035 ± 0.0002 s⁻¹
- Representative Traces, normalised fluorescence (bovine cardiac myosin S1; t 396 s): 0.2925
- Representative Traces, normalised fluorescence (bovine cardiac myosin S1; t 397 s): 0.3426
- Representative Traces, normalised fluorescence (bovine cardiac myosin S1; t 398 s): 0.3062
- Representative Traces, normalised fluorescence (bovine cardiac myosin S1; t 399 s): 0.3254
- Representative Traces, normalised fluorescence (bovine cardiac myosin S1; t 400 s): 0.3408
- Representative Traces, normalised fluorescence (bovine cardiac myosin S1; t 401 s): 0.3177
- Representative Traces, normalised fluorescence (bovine cardiac myosin S1; t 402 s): 0.2999
- Representative Traces, normalised fluorescence (bovine cardiac myosin S1; t 403 s): 0.3192
- Representative Traces, normalised fluorescence (bovine cardiac myosin S1; t 404 s): 0.3277
- Representative Traces, normalised fluorescence (bovine cardiac myosin S1; t 405 s): 0.3461
- Representative Traces, normalised fluorescence (bovine cardiac myosin S1; t 406 s): 0.3076
- Representative Traces, normalised fluorescence (bovine cardiac myosin S1; t 407 s): 0.3064
- Representative Traces, normalised fluorescence (bovine cardiac myosin S1; t 408 s): 0.3235
- Representative Traces, normalised fluorescence (bovine cardiac myosin S1; t 409 s): 0.3324
- Representative Traces, normalised fluorescence (bovine cardiac myosin S1; t 411 s): 0.3126
- Representative Traces, normalised fluorescence (bovine cardiac myosin S1; t 412 s): 0.2865
- Representative Traces, normalised fluorescence (bovine cardiac myosin S1; t 413 s): 0.2993
- Representative Traces, normalised fluorescence (bovine cardiac myosin S1; t 414 s): 0.3256
- Representative Traces, normalised fluorescence (bovine cardiac myosin S1; t 415 s): 0.2791
- Representative Traces, normalised fluorescence (bovine cardiac myosin S1; t 416 s): 0.3071
- Representative Traces, normalised fluorescence (bovine cardiac myosin S1; t 417 s): 0.3285
- Representative Traces, normalised fluorescence (bovine cardiac myosin S1; t 418 s): 0.3567
- Representative Traces, normalised fluorescence (bovine cardiac myosin S1; t 419 s): 0.2951
- Representative Traces, normalised fluorescence (bovine cardiac myosin S1; t 420 s): 0.2958
- Representative Traces, normalised fluorescence (bovine cardiac myosin S1; t 421 s): 0.2771
- Representative Traces, normalised fluorescence (bovine cardiac myosin S1; t 422 s): 0.3283
- Representative Traces, normalised fluorescence (bovine cardiac myosin S1; t 423 s): 0.3329
- Representative Traces, normalised fluorescence (bovine cardiac myosin S1; t 424 s): 0.3402
- Representative Traces, normalised fluorescence (bovine cardiac myosin S1; t 425 s): 0.3675
- Representative Traces, normalised fluorescence (bovine cardiac myosin S1; t 426 s): 0.3241
- Representative Traces, normalised fluorescence (bovine cardiac myosin S1; t 427 s): 0.3018
- Representative Traces, normalised fluorescence (bovine cardiac myosin S1; t 429 s): 0.3105
- Representative Traces, normalised fluorescence (bovine cardiac myosin S1; t 430 s): 0.2835
- Representative Traces, normalised fluorescence (bovine cardiac myosin S1; t 431 s): 0.3652
- Representative Traces, normalised fluorescence (bovine cardiac myosin S1; t 432 s): 0.276
- Representative Traces, normalised fluorescence (bovine cardiac myosin S1; t 433 s): 0.3282
- Representative Traces, normalised fluorescence (bovine cardiac myosin S1; t 434 s): 0.3046
- Representative Traces, normalised fluorescence (bovine cardiac myosin S1; t 436 s): 0.327
- Representative Traces, normalised fluorescence (bovine cardiac myosin S1; t 438 s): 0.2936
- Representative Traces, normalised fluorescence (bovine cardiac myosin S1; t 439 s): 0.2402
- Representative Traces, normalised fluorescence (bovine cardiac myosin S1; t 440 s): 0.312
- Representative Traces, normalised fluorescence (bovine cardiac myosin S1; t 442 s): 0.3011
- Representative Traces, normalised fluorescence (bovine cardiac myosin S1; t 443 s): 0.3298
- Representative Traces, normalised fluorescence (bovine cardiac myosin S1; t 444 s): 0.251
- Representative Traces, normalised fluorescence (bovine cardiac myosin S1; t 445 s): 0.2991
- Representative Traces, normalised fluorescence (bovine cardiac myosin S1; t 448 s): 0.3473
- Representative Traces, normalised fluorescence (bovine cardiac myosin S1; t 449 s): 0.3057
- Representative Traces, normalised fluorescence (bovine cardiac myosin S1; t 450 s): 0.2886
- Representative Traces, normalised fluorescence (bovine cardiac myosin S1; t 451 s): 0.2859
- Representative Traces, normalised fluorescence (bovine cardiac myosin S1; t 452 s): 0.29
- Representative Traces, normalised fluorescence (bovine cardiac myosin S1; t 453 s): 0.2756
- Representative Traces, normalised fluorescence (bovine cardiac myosin S1; t 454 s): 0.2575
- Representative Traces, normalised fluorescence (bovine cardiac myosin S1; t 455 s): 0.3029
- Representative Traces, normalised fluorescence (bovine cardiac myosin S1; t 457 s): 0.3415
- Representative Traces, normalised fluorescence (bovine cardiac myosin S1; t 458 s): 0.2853
- Representative Traces, normalised fluorescence (bovine cardiac myosin S1; t 459 s): 0.3237
- Representative Traces, normalised fluorescence (bovine cardiac myosin S1; t 460 s): 0.3029
- Representative Traces, normalised fluorescence (bovine cardiac myosin S1; t 461 s): 0.3217
- Representative Traces, normalised fluorescence (bovine cardiac myosin S1; t 462 s): 0.3036
- Representative Traces, normalised fluorescence (bovine cardiac myosin S1; t 463 s): 0.347
- Representative Traces, normalised fluorescence (bovine cardiac myosin S1; t 464 s): 0.2897
- Representative Traces, normalised fluorescence (bovine cardiac myosin S1; t 465 s): 0.2531
- Representative Traces, normalised fluorescence (bovine cardiac myosin S1; t 466 s): 0.2878
- Representative Traces, normalised fluorescence (bovine cardiac myosin S1; t 467 s): 0.2939
- Representative Traces, normalised fluorescence (bovine cardiac myosin S1; t 468 s): 0.2524
- Representative Traces, normalised fluorescence (bovine cardiac myosin S1; t 469 s): 0.272
- Representative Traces, normalised fluorescence (bovine cardiac myosin S1; t 470 s): 0.2865
- Representative Traces, normalised fluorescence (bovine cardiac myosin S1; t 471 s): 0.2593
- Representative Traces, normalised fluorescence (bovine cardiac myosin S1; t 472 s): 0.2417
- Representative Traces, normalised fluorescence (bovine cardiac myosin S1; t 473 s): 0.3026
- Representative Traces, normalised fluorescence (bovine cardiac myosin S1; t 474 s): 0.305
- Representative Traces, normalised fluorescence (bovine cardiac myosin S1; t 475 s): 0.2893
- Representative Traces, normalised fluorescence (bovine cardiac myosin S1; t 476 s): 0.2207
- Representative Traces, normalised fluorescence (bovine cardiac myosin S1; t 477 s): 0.2579
- Representative Traces, normalised fluorescence (bovine cardiac myosin S1; t 479 s): 0.2507
- Representative Traces, normalised fluorescence (bovine cardiac myosin S1; t 481 s): 0.3039
- Representative Traces, normalised fluorescence (bovine cardiac myosin S1; t 482 s): 0.2976
- Representative Traces, normalised fluorescence (bovine cardiac myosin S1; t 483 s): 0.3557
- Representative Traces, normalised fluorescence (bovine cardiac myosin S1; t 484 s): 0.2911
- Representative Traces, normalised fluorescence (bovine cardiac myosin S1; t 485 s): 0.3282
- Representative Traces, normalised fluorescence (bovine cardiac myosin S1; t 486 s): 0.3063
- Representative Traces, normalised fluorescence (bovine cardiac myosin S1; t 487 s): 0.301
- Representative Traces, normalised fluorescence (bovine cardiac myosin S1; t 489 s): 0.3448
- Representative Traces, normalised fluorescence (bovine cardiac myosin S1; t 490 s): 0.2903
- Representative Traces, normalised fluorescence (bovine cardiac myosin S1; t 491 s): 0.2724
- Representative Traces, normalised fluorescence (bovine cardiac myosin S1; t 492 s): 0.2681
- Representative Traces, normalised fluorescence (bovine cardiac myosin S1; t 493 s): 0.2418
- Representative Traces, normalised fluorescence (bovine cardiac myosin S1; t 494 s): 0.2422
- Representative Traces, normalised fluorescence (bovine cardiac myosin S1; t 495 s): 0.2809
- Representative Traces, normalised fluorescence (bovine cardiac myosin S1; t 496 s): 0.2322
- Representative Traces, normalised fluorescence (bovine cardiac myosin S1; t 498 s): 0.212
- Representative Traces, normalised fluorescence (bovine cardiac myosin S1; t 499 s): 0.2038
- Representative Traces, normalised fluorescence (bovine cardiac myosin S1; t 500 s): 0.275
- Representative Traces, normalised fluorescence (bovine cardiac myosin S1; t 501 s): 0.2793
- Representative Traces, normalised fluorescence (bovine cardiac myosin S1; t 502 s): 0.2398
- Representative Traces, normalised fluorescence (bovine cardiac myosin S1; t 503 s): 0.2758
- Representative Traces, normalised fluorescence (bovine cardiac myosin S1; t 504 s): 0.2833
- Representative Traces, normalised fluorescence (bovine cardiac myosin S1; t 505 s): 0.2324
- Representative Traces, normalised fluorescence (bovine cardiac myosin S1; t 506 s): 0.2749
- Representative Traces, normalised fluorescence (bovine cardiac myosin S1; t 507 s): 0.3022
- Representative Traces (mant-ATP chase, normalised signal) (bovine cardiac myosin S1; t = 796 s): 0.1415
- Representative Traces (mant-ATP chase, normalised signal) (bovine cardiac myosin S1; t = 797 s): 0.08266
Structure (SMILES): CC(C)n1c(=O)cc(N[C@@H](C)c2ccccc2)[nH]c1=O [Mavacamten]
- Bar graph (Figure 3b, mant-ATP chase) ([1]; Figure 3b source data, individual replicate values): 77.58 and 71.76 and 78.3 and 63.78 and 62.87 and 75.77 and 68.24
- kfast [1, 2]: 0.1528 s⁻¹ and 0.02969 s⁻¹ and 0.09681 s⁻¹ and 0.02631 s⁻¹ and 0.06313 s⁻¹ and 0.02802 s⁻¹
- kslow [1, 2]: 0.001307 s⁻¹ and 0.001384 s⁻¹ and 0.002093 s⁻¹ and 0.003633 s⁻¹ and 0.005541 s⁻¹ and 0.004994 s⁻¹
- slow phase [1, 2]: 71.76% and 78.3% and 63.78% and 62.87% and 75.77% and 68.24%
- kfast (bovine cardiac myosin S1; [3]): 0.009858 s⁻¹ and 0.01039 s⁻¹ and 0.07197 s⁻¹ and 0.03575 s⁻¹ and 0.01101 s⁻¹ and 0.01169 s⁻¹
- kslow (bovine cardiac myosin S1; [3]): 0.00364 s⁻¹ and 0.002861 s⁻¹ and 0.004023 s⁻¹ and 0.004095 s⁻¹ and 0.003004 s⁻¹ and 0.003638 s⁻¹
- slow phase (bovine cardiac myosin S1; [3]): 82.01% and 63.89% and 87.3% and 56.77% and 56.99% and 79.26%
